Assay results as given in US12215111B2, “Imidazopyridazine IL-17 inhibitor compounds” (Janssen Pharmaceutica NV, priority 2021, dated 2025).

Key:
[1] = molecular target: T1, IL-17A(FLAG-Tagged): IL-17RA(His-Tagged) (Homo sapiens, UniProt Q16552, K93Q); experiment: IL-17A(FLAG-tagged):IL-17RA(His-tagged) binding disruption Eu-HTRF assay, Protocol 2; conditions: FLAG tagged IL-17A at 2× final concentration (1 nM); simple average if tested more than once
Excerpt: (§1) IL-17A(FLAG-Tagged): IL-17RA(His-Tagged) Binding Disruption Eu-HTRF Assay
(§2) An antibody directed against the FLAG tag of IL-17A (SEQ ID NO:1) is labeled with the HTRF donor chromophore (Europium-cryptate). IL-17A is present as a dimer that is “locked into” this quaternary structure due to the formation of loop-spanning […] disulfide bridges. The construct of IL-17RA used in the assay excludes the outer-membrane portion of the receptor and is fused to a C-terminal 10×His tag (SEQ ID NO:2). An antibody directed against the His tag of the IL-17RA chimera is labeled with the HTRF acceptor chromophore (“D2”). The fluorescence-resonance energy transfer (FRET) depends on the vicinity of the donor chromophore to the acceptor, and interruption of the binding between the IL-17A and IL-17RA causes the reduction/loss of FRET. Therefore, this assay allows to evaluate the compound effect on the binding IL-17A and IL-17RA by monitoring the fluorescence intensity of donor vs acceptor. The assay was run using either Protocol 1 or Protocol 2 described below.
(§3) Protocol 2. 40 nl of 2-fold serial diluted compound solution for total 22 dilution points is added into each well of a 1536-well, white, low-volume, non-binding plate (Greiner #782904), then 2 μl of FLAG tagged IL-17A at 2× final concentration (1 nM) in solution of PBS+0.01% Triton-X100 is added to each well. The assay plate is briefly centrifuged then incubated for 1 h at rt. A mixed solution is prepared containing 2×5 nM 10HIS×IL-17RA, 2×2.5 nM Eu-anti-FLAG (CISBIO), 2×5 nM D2-anti-HIS (CISBIO) in PBS+0.01% Triton-X100+200 mM Potassium Fluoride (Sigma 60238) and […] of mix is added to each well of the assay plate. The plate is briefly centrifuged then incubated for 2 h at rt. The HTRF intensities at the wavelength of donor (615 nm) and acceptor (665 nm) are measured using BMG Pherastar. The ratio between intensities at two wavelengths is calculated and plotted against the compound concentration and the data is fitted to a one-site competition model to yield IC50 of the compound.

[2] = test system: IL-17A-induced G-CSF production in human normal keratinocyte (NHK); experiment: NHK assay: IL-17A-induced G-CSF production in normal human keratinocytes; type: cell-based; conditions: IL-17A 5 ng/mL, 24 h at 37° C., G-CSF by HTRF, simple average if tested more than once
Method: IL-17A acts directly on keratinocytes through binding to dimeric receptor IL-17RA/RC and drives the production of a number of inflammatory mediators known to be elevated in psoriasis lesional tissue. IL-17A small molecule inhibitors that block the IL-17A to interact with IL-17R would inhibit the IL-17A signaling in its targeted cells such as keratinocytes. The compound functional activity is evaluated for its impact on IL-17A-induced G-CSF production in human normal keratinocyte (NHK).
Adult normal human keratinocytes are cultured in keratinocyte growth medium (Lonza) in a flask till reaching ˜90% confluence, then cells are transferred to a 384-well plate at density of 3000-4000 cell/well. Recombinant human IL-17A (Gibco PHC9174) is pre-incubated with titrated compound or DMSO for 1 h at rt then added to the cell culture plate. The final concentration of IL-17A is 5 ng/mL and DMSO is 0.2%, in the culture containing 5% FBS. Cells are cultured/treated for 24 h at 37° C. Supernatants are collected and G-CSF production is measured through HTRF technology using Human G-CSF Kit (CisBio). G-CSF concentration was extrapolated from the standard curve and IC50 is determined using GraphPad Prism. Cell viability is also evaluated using CellTiter-Glo kit (Promega) and effect of compound on cell viability is compared to DMSO control.

[3] = molecular target: T1, IL-17A(FLAG-Tagged): IL-17RA(His-Tagged); experiment: IL-17A(FLAG-tagged):IL-17RA(His-tagged) binding disruption Eu-HTRF assay, Protocol 1; conditions: FLAG tagged IL-17A at 2× final concentration (2.5 nM); simple average if tested more than once
Excerpt: as §1, §2
as §3, with “Protocol 1:” for “Protocol 2.”, “40 nL” for “40 nl”, “concentration (2.5” for “concentration (1”, “donor (620” for “donor (615”

T1 sequence (Q16552 with tags, fused parts or gaps K93Q): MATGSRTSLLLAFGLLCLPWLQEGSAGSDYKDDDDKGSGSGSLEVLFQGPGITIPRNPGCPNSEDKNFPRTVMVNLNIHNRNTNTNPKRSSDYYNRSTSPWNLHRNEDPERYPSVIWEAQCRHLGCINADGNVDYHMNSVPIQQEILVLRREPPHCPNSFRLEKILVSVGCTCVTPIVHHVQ

Compound	IC50 [1]	IC50 [3]	IC50 ([2]; Homo sapiens, Keratinocyte)	IC50 [2]
COC[C@H](c1cnn2cc([C@H](CCC(C)(C)C(F)(F)F)NC(=O)c3nonc3C)nc2c1)N1C[C@@](C)(C(F)(F)F)NC1=O (single isomer, unassigned) [Example 31]	< 4 µM		< 4 µM	
COC[C@H](c1cnn2cc([C@H](COC(C)(C)C(F)(F)F)NC(=O)c3nonc3C)nc2c1)N1C[C@@H](C(F)(F)F)NC1=O [Example 9]		< 4 µM	< 4 µM	
O=C(N[C@H](c1cn2ncc(CN3CCNC3=O)cc2n1)C1CCC(F)(F)CC1)c1nonc1C1CC1 [Example 2, (S)-4-Cyclopropyl-N-((4,4-difluorocyclohexyl)(7-((2-oxoimidazolidin-1-yl)methyl)imidazo[1,2-b]pyridazin-2-yl)methyl)-1,2,5-oxadiazole-3-carboxamide]		< 4 µM	< 4 µM	
COC[C@H](c1cnn2cc([C@H](COC(C)(C)C(F)(F)F)NC(=O)c3nonc3C3CC3)nc2c1)N1C[C@@H](C(F)(F)F)NC1=O [Example 10]		< 4 µM	< 4 µM	
COC[C@H](c1cnn2cc([C@H](COC(C)(C)C(F)(F)F)NC(=O)[C@H]3C[C@@H]3C(F)(F)F)nc2c1)N1C[C@@H](C(F)(F)F)NC1=O (relative stereo) [Example 33, (1S*,2S*)—N—((R)-1-(7-((S)-2-Methoxy-1-((S)-2-oxo-4-(trifluoromethyl)imidazolidin-1-yl)ethyl)imidazo[1,2-b]pyridazin-2-yl)-2-(1,1,1-trifluoro-2-methylpropan-2-yl)oxy)ethyl)-2-(trifluoromethyl)cyclopropane-1-carboxamide]		< 4 µM	< 4 µM	
COC[C@H](c1cnn2cc([C@H](COC(C)(C)C(F)(F)F)NC(=O)c3ncnn3C(C)C)nc2c1)N1C[C@@H](C(F)(F)F)NC1=O [Example 36, 1-Isopropyl-N—((R)-1-(7-((S)-2-methoxy-1-((S)-2-oxo-4-(trifluoromethyl)imidazolidin-1-yl)ethyl)imidazo[1,2-b]pyridazin-2-yl)-2-((1,1,1-trifluoro-2-methylpropan-2-yl)oxy)ethyl)-1H-1,2,4-triazole-5-carboxamide]		< 4 µM	< 4 µM	
COC[C@H](c1cnn2cc([C@H](COC(C)(C)C(F)(F)F)NC(=O)c3ccnn3C(C)C)nc2c1)N1C[C@@H](C(F)(F)F)NC1=O [Example 11]		< 4 µM	< 4 µM	
CC(C)n1nccc1C(=O)N[C@H](c1cn2ncc(CN3C[C@H](C)NC3=O)cc2n1)C1CCC(F)(F)CC1 [Example 5, N—((S)—(4,4-Difluorocyclohexyl)(7-(((S)-4-methyl-2-oxoimidazolidin-1-yl)methyl)imidazo[1,2-b]pyridazin-2-yl)methyl)-1-isopropyl-1H-pyrazole-5-carboxamide]		< 4 µM	> 10 µM	
[2H]C([2H])([2H])C([2H])([2H])n1nccc1C(=O)N[C@@H](COC(C)(C)C(F)(F)F)c1cn2ncc([C@@H](COC)N3C[C@@H](C(F)(F)F)NC3=O)cc2n1 [Example 12]		< 4 µM	< 4 µM	

Now from value to molecule, other results behind:

IC50 [1]	IC50 [3]	Compound	IC50 ([2]; Homo sapiens, Keratinocyte)	IC50 [2]
	< 4 µM	C[C@H]1CN(Cc2cnn3cc([C@@H](NC(=O)c4nonc4C4CC4)C4CCC(F)(F)CC4)nc3c2)C(=O)N1 [Example 4, 4-Cyclopropyl-N—((S)—(4,4-difluorocyclohexyl)(7-(((S)-4-methyl-2-oxoimidazolidin-1-yl)methyl)imidazo[1,2-b]pyridazin-2-yl)methyl)-1,2,5-oxadiazole-3-carboxamide]	< 4 µM	
	< 4 µM	O=C(N[C@H](c1cn2ncc(CN3C(=O)N[C@H]4CC(F)(F)C[C@H]43)cc2n1)C1CCC(F)(F)CC1)c1nonc1C1CC1 (single isomer, unassigned) [Example 8, 4-Cyclopropyl-N—((S)-(7-(((3aS*,6aR*)-5,5-difluoro-2-oxohexahydrocyclopenta[d]imidazol-1(2H)-yl)methyl)imidazo[1,2-b]pyridazin-2-yl)(4,4-difluorocyclohexyl)methyl)-1,2,5-oxadiazole-3-carboxamide]	< 4 µM	
	< 4 µM	Cc1nonc1C(=O)N[C@H](c1cn2ncc([C@@H](C3CC3)N3CC(CC(F)(F)F)NC3=O)cc2n1)C1CCC(F)(F)CC1 (single isomer, unassigned) [Example 20, N—((S)-(7-((R)-Cyclopropyl((S*)-2-oxo-4-(2,2,2-trifluoroethyl)imidazolidin-1-yl)methyl)imidazo[1,2-b]pyridazin-2-yl)(4,4-difluorocyclohexyl)methyl)-4-methyl-1,2,5-oxadiazole-3-carboxamide]		< 4 µM
	< 4 µM	Cc1nonc1C(=O)N[C@H](c1cn2ncc(CN3CCNC3=O)cc2n1)C1CCC(F)(F)CC1 [Example 1, (S)—N-((4,4-Difluorocyclohexyl)(7-((2-oxoimidazolidin-1-yl)methyl)imidazo[1,2-b]pyridazin-2-yl)methyl)-4-methyl-1,2,5-oxadiazole-3-carboxamide]	4 to 10 µM	
	< 4 µM	Cc1nonc1C(=O)N[C@H](c1cn2ncc([C@@H](C3CC3)N3C[C@@H](C4CC4)NC3=O)cc2n1)C1CCC(F)(F)CC1 [Example 17, N—[(S)—[7-[(R)-Cyclopropyl-[(4R)-4-cyclopropyl-2-oxo-imidazolidin-1-yl]methyl]imidazo[1,2-b]pyridazin-2-yl]-(4,4-difluorocyclohexyl)methyl]-4-methyl-1,2,5-oxadiazole-3-carboxamide]	< 4 µM	
	< 4 µM	Cc1nonc1C(=O)N[C@H](c1cn2ncc([C@@H](C3CC3)N3C[C@@H](C(C)C)NC3=O)cc2n1)C1CCC(F)(F)CC1 [Example 18, N—[(S)—[7-[(R)-Cyclopropyl-[(4R)-4-isopropyl-2-oxo-imidazolidin-1-yl]methyl]imidazo[1,2-b]pyridazin-2-yl]-(4,4-difluorocyclohexyl)methyl]-4-methyl-1,2,5-oxadiazole-3-carboxamide]	< 4 µM	
	< 4 µM	Cc1nonc1C(=O)N[C@H](c1cn2ncc([C@@H](C3CC3)N3CC(CC(F)(F)F)NC3=O)cc2n1)C1CCC(F)(F)CC1 (single isomer, unassigned) [Example 19, N—((S)-(7-((R)-Cyclopropyl((R*)-2-oxo-4-(2,2,2-trifluoroethyl)imidazolidin-1-yl)methyl)imidazo[1,2-b]pyridazin-2-yl)(4,4-difluorocyclohexyl)methyl)-4-methyl-1,2,5-oxadiazole-3-carboxamide]	< 4 µM	
